PubChem BioAssay (NCI)
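Five concentrations, 48 hours, 96-well plates. The concentration for 50% growth inhibition is given as GI50. Definition used: TGI = concentration required for complete inhibition of growth.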

Experiments:
Experiment in all cases: NCI tumour cell line growth inhibition, 48 h
[1] = system: CCRF-CEM leukemia
[2] = system: ACHN renal
[3] = system: OVCAR-3 ovarian
[4] = system: A549 NSCLC
[5] = system: OVCAR-5 ovarian
[6] = system: M14 melanoma
[7] = system: NCI-H460 lung
[8] = system: HCC-2998 colon
[9] = system: MDA-MB-435
[10] = system: MALME-3M melanoma
[11] = system: RPMI-8226 leukemia
[12] = system: MDA-MB-231 breast
[13] = system: HOP-92 NSCLC
[14] = system: 786-0 renal
[15] = system: MDA-N
[16] = system: SK-OV-3 ovarian
[17] = system: MOLT-4 leukemia
[18] = system: U251 CNS
[19] = system: SF-295 CNS
[20] = system: COLO 205 colon
[21] = system: SNB-19 CNS
[22] = system: UACC-62 melanoma
[23] = system: BT-549 breast
[24] = system: NCI-H23 lung
[25] = system: HS 578T breast
[26] = system: A498 renal
[27] = system: NCI-H226 lung
[28] = system: NCI-H522 lung
[29] = system: T-47D breast
[30] = system: LOX IMVI melanoma
[31] = system: HCT-15 colon
[32] = system: HCT-116 colon
[33] = system: KM12 colon
[34] = system: SW-620 colon
[35] = system: UACC-257 melanoma
[36] = system: SK-MEL-5 melanoma
[37] = system: SNB-75 CNS
[38] = system: CAKI-1 renal
[39] = system: UO-31 renal
[40] = system: TK-10 renal
[41] = system: OVCAR-8 ovarian
[42] = system: NCI/ADR-RES ovarian
[43] = system: IGROV1 ovarian
[44] = system: SK-MEL-2 melanoma
[45] = system: SN12C renal
[46] = system: EKVX NSCLC
[47] = system: HL-60(TB) leukemia
[48] = system: K-562 leukemia
[49] = system: PC-3 prostate
[50] = system: RXF 393 renal
[51] = system: SF-539 CNS
[52] = system: SR leukemia
[53] = system: MCF7 breast
[54] = system: SF-268 CNS
[55] = system: DU-145 prostate
[56] = system: OVCAR-4 ovarian
[57] = system: HOP-62 NSCLC
[58] = system: HT29 colon
[59] = system: SK-MEL-28 melanoma

c1ccc(CCNCc2ccco2)nc1
TGI [1]: > 100 µM
TGI [2]: > 100 µM
TGI [3]: > 100 µM
TGI [4]: > 100 µM
TGI [5]: > 100 µM
TGI [6]: > 100 µM
TGI [7]: > 100 µM
TGI [8]: > 100 µM
TGI [9]: > 100 µM
TGI [10]: > 100 µM
TGI [11]: > 67.9 µM
TGI [12]: > 100 µM
TGI [13]: > 100 µM
TGI [14]: > 100 µM
TGI [15]: > 100 µM
TGI [16]: > 100 µM
TGI [17]: > 100 µM
TGI [18]: > 100 µM
TGI [19]: > 100 µM
TGI [20]: > 100 µM
TGI [21]: > 100 µM
TGI [22]: > 100 µM
TGI [23]: > 100 µM
TGI [24]: > 100 µM
TGI [25]: > 100 µM
TGI [26]: > 100 µM
TGI [27]: > 100 µM
TGI [28]: > 100 µM
TGI [29]: > 28.5 µM
TGI [30]: > 100 µM
TGI [31]: > 100 µM
TGI [32]: > 100 µM
TGI [33]: > 100 µM
TGI [34]: > 100 µM
TGI [35]: > 100 µM
TGI [36]: > 100 µM
TGI [37]: > 100 µM
TGI [38]: > 100 µM
TGI [39]: > 100 µM
TGI [40]: > 100 µM
TGI [41]: > 100 µM
TGI [42]: > 100 µM
TGI [43]: > 100 µM
TGI [44]: > 100 µM
TGI [45]: > 100 µM
TGI [46]: > 100 µM
TGI [47]: > 100 µM
TGI [48]: > 33.6 µM
TGI [49]: > 100 µM
TGI [50]: > 100 µM
TGI [51]: > 100 µM
TGI [52]: > 100 µM
TGI [53]: > 100 µM
TGI [54]: > 100 µM
TGI [55]: > 100 µM
TGI [56]: > 100 µM
TGI [57]: > 100 µM
TGI [58]: > 100 µM
TGI [59]: > 100 µM

Cc1ccncc1.F[B-](F)(F)F.[Pt+2].c1ccc(-c2cccc(-c3ccccn3)n2)nc1
TGI [1]: > 100 µM
TGI [2]: 25.1 µM
GI50 [3]: 0.835 µM
TGI [3]: > 44.3 µM
TGI [4]: > 75.7 µM
TGI [5]: 41.4 µM
TGI [6]: 13.5 µM
TGI [7]: 23.3 µM
TGI [8]: 59.5 µM
TGI [9]: > 81.4 µM
TGI [10]: 20.1 µM
TGI [11]: 32.9 µM
TGI [12]: > 100 µM
GI50 [13]: 10.2 µM
TGI [13]: > 100 µM
TGI [14]: 46.4 µM
TGI [15]: > 100 µM
TGI [16]: 17.6 µM
TGI [17]: 39.1 µM
TGI [18]: > 100 µM
TGI [19]: 7.74 µM
TGI [20]: 20.8 µM
TGI [21]: > 66.7 µM
TGI [22]: 36.5 µM
GI50 [23]: 13.7 µM
TGI [23]: > 78.6 µM
TGI [24]: > 88 µM
TGI [25]: > 45 µM
TGI [26]: 45.1 µM
GI50 [27]: 0.618 µM
TGI [27]: 5.36 µM
TGI [28]: 36.3 µM
TGI [29]: 42.9 µM
GI50 [30]: 1.28 µM
TGI [30]: > 88.4 µM
TGI [31]: 38.1 µM
TGI [32]: > 100 µM
TGI [33]: 39.5 µM
TGI [34]: 42.6 µM
TGI [35]: 44.5 µM
TGI [36]: 21.7 µM
TGI [37]: > 89.7 µM
TGI [38]: > 62.1 µM
TGI [39]: > 27.8 µM
TGI [40]: 28.5 µM
TGI [41]: 31 µM
TGI [42]: 11.7 µM
TGI [43]: > 30.6 µM
TGI [44]: > 100 µM
TGI [45]: > 100 µM
TGI [46]: > 73.5 µM
TGI [47]: > 45.7 µM
TGI [48]: > 100 µM
TGI [49]: > 100 µM
TGI [50]: 38.4 µM
TGI [51]: 15.1 µM
TGI [52]: > 100 µM
TGI [53]: 25.7 µM
TGI [54]: > 60 µM
TGI [55]: > 100 µM
TGI [56]: > 100 µM
TGI [57]: > 55.2 µM
TGI [58]: 27.9 µM
TGI [59]: > 100 µM

CSC(CC(=O)O)C(=O)O (stereo unspecified)
TGI [1]: > 100 µM
TGI [2]: > 100 µM
TGI [3]: > 100 µM
TGI [4]: > 100 µM
TGI [5]: > 100 µM
TGI [6]: > 100 µM
TGI [7]: > 100 µM
TGI [8]: > 100 µM
TGI [9]: > 100 µM
TGI [10]: > 100 µM
TGI [11]: > 100 µM
TGI [12]: > 100 µM
TGI [13]: > 100 µM
TGI [14]: > 100 µM
TGI [15]: > 100 µM
TGI [16]: > 100 µM
TGI [17]: > 100 µM
TGI [18]: > 100 µM
TGI [19]: > 100 µM
TGI [20]: > 100 µM
TGI [21]: > 100 µM
TGI [22]: > 100 µM
TGI [23]: > 100 µM
TGI [24]: > 100 µM
TGI [25]: > 100 µM
TGI [26]: > 100 µM
TGI [27]: > 100 µM
TGI [28]: > 100 µM
TGI [29]: > 100 µM
TGI [30]: > 100 µM
TGI [31]: > 100 µM
TGI [32]: > 100 µM
TGI [33]: > 100 µM
TGI [34]: > 100 µM
TGI [35]: > 100 µM
TGI [36]: > 100 µM
TGI [37]: > 100 µM
TGI [38]: > 100 µM
TGI [39]: > 100 µM
TGI [40]: > 100 µM
TGI [41]: > 100 µM
TGI [42]: > 100 µM
TGI [43]: > 100 µM
TGI [44]: > 100 µM
TGI [45]: > 100 µM
TGI [46]: > 100 µM
TGI [47]: > 100 µM
TGI [49]: > 100 µM
TGI [50]: > 100 µM
TGI [51]: > 100 µM
TGI [52]: > 100 µM
TGI [53]: > 100 µM
TGI [54]: > 100 µM
TGI [55]: > 100 µM
TGI [56]: > 100 µM
TGI [57]: > 100 µM
TGI [58]: > 100 µM
TGI [59]: > 100 µM
